In patent publication US6943170B2, “N-cycloalkylglycines as HIV protease inhibitors” (Bristol-Myers Squibb Company, priority 2002, dated 2005) one finds IC90 data, which are given here for one compound.

Values after ≈ are worked out from the molar mass of the structure shown.

The test system of the test is HIV-1 (RF). The test can be described thus: HIV RNA assay: microplate based compound evaluation in HIV-1 infected MT-2 cells. It is filed as cell-based. The note with it: Human immunodeficiency virus 1, MT2, 72 h; HIV-1 (RF) infected MT-2 cells, 3 days culture; value used to standardize the virus inoculum; read-out: IC90 (concentration of compound required to reduce the HIV RNA level by 90%). Here is the method: Plasmid PDAB 72 containing both gag and pol sequences of BH10 (bp 113-1816) cloned into PTZ 19R was prepared according to Erickson-Vitanen et al. AIDS Research and Human Retroviruses 1989, 5, 577. The plasmid was linearized with Bam HI prior to the generation of in vitro RNA transcripts using the Riboprobe Gemini system II kit (Promega) with T7 RNA polymerase. Synthesized RNA was purified by treatment with RNase free DNAse (Promega), phenol-chloroform extraction, and ethanol precipitation. RNA transcripts were dissolved in water, and stored at −70EC. The concentration of RNA was determined from the A260.
Biotinylated capture probes were purified by HPLC after synthesis on an Applied Biosystems (Foster city, Calif.) DNA synthesizer by addition of biotin to the 5N terminal end of the oligonucleotide, using the biotin-phosphoramidite reagent of Cocuzza, Tet. Lett. 1989, 30, 6287. […]
MT-2 and MT-4 cells were maintained in RPMI 1640 supplemented with 5% fetal calf serum (FCS) for MT-2 cells or 10% FCS for MT-4 cells, 2 mM L-glutamine and 50 μg/mL gentamycin, all from Gibco. […] Infectious titers of HIV-1 (RF) stocks were 1-3×10^7 PFU (plaque forming units)/mL as measured by plaque assay on MT-2 cells (see below). […]

Regarding `Nc1ccn([C@H]2CC[C@@H](CO)O2)c(=O)n1` [ddC, dideoxycytidine], the IC90 is 0.2 µg/mL (≈ 0.947 µM).
